The values that follow come from ChEMBL document CHEMBL1146099, “Anthranilic acid based CCK1 receptor antagonists and CCK-8 have a common step in their "receptor desmodynamic processes"” (J Med Chem, 2006).

The test deals with T1, Cholecystokinin receptor type A (Homo sapiens, UniProt P32238).
T1 sequence (P32238 whole entry): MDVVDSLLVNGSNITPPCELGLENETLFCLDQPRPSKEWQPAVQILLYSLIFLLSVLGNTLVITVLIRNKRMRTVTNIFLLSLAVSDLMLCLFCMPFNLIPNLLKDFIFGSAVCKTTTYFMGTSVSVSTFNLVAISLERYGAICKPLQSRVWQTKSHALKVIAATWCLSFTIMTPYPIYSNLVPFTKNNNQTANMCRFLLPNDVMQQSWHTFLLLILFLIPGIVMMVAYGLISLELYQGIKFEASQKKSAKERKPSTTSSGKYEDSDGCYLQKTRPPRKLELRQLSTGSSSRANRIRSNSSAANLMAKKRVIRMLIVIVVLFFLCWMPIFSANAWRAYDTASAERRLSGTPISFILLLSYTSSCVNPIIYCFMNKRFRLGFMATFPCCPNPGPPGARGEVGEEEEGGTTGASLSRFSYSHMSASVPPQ
Description: Displacement of [111In]DTPA-Glu-Gly-[Tyr27(SO3H)]-CCK8 from human CCK1 receptor in A431 cells. The format is cell-based, A-431.

Molecules are shown by their SMILES.

`O=C(Nc1ccccc1C(=O)NC(Cc1ccccc1)C(=O)O)c1cc2ccccc2[nH]1` (racemic) showed an IC50 of 197 nM. For `CC(=O)N/C(=C/c1ccccc1)C(=O)Nc1ccccc1C(=O)NC(Cc1ccccc1)C(=O)O` (racemic), the IC50 was 12700 nM. Turning to `O=C(/C=C/c1ccccc1)Nc1ccccc1C(=O)NC(Cc1ccccc1)C(=O)O` (racemic), the IC50 was 4000 nM. With `CC(NC(=O)c1ccccc1NC(=O)c1cc2ccccc2[nH]1)C(=O)O` (racemic) the figure was 2800 nM; with `CCCCCN(CCCOC)C(=O)C(CCC(=O)O)NC(=O)c1ccc(Cl)c(Cl)c1` (stereo not given) [LOXIGLUMIDE], 195 nM.

A word on the IC50: it is the point on the concentration scale where inhibition reaches its midpoint.
